Measurements taken from patent US20040054292A1, “Non-invasive apparatus system for monitoring autonomic nervous system and uses thereof” (INDUSTRIAL TECHNOLOGY RESEARCH INSTITUTE, priority 2002, published 2004).

Key:
autonomic nervous system [1] = test: Heart rate variability spectral analysis in anesthetized rats after intravenous drug; assay type: in vivo, Sprague-Dawley rats; settings: for high frequency (index of parasympathetic nervous activity): 0.5 to 2.4 Hz
Experimental: Matured male Sprague-Dawley rats (weighed 250-350 g) were first sensitizing anesthetized by intraperitoneal injecting of pentobarbital sodium (50 mg/kg) and then were general anesthetized by continuously infusion with pentobarbital sodium (15 mg/kg). The rats were intubated in both femoral veins, wherein one was used for continuously dropping anesthesia and the other was used for delivering testing drug. The rates were tracheal intubated to connect with a respirator (Havard 683) for mechanical respiration. In addition, the skeletal muscle of the whole body of the animals was anesthetized by administrating pancuronium. In order to record the artery pressure, the intubation at the right femoral artery was linked to a PE-50 tube connected with a syringe pre-filled with heparinized saline (200 unit/mL). The artery pressure and heart rate were recorded by a pressure sensory machine ([…], Hewlett-Packard) in the tube. The artery pressure was converted by a pressure converter (Statham, P231D, frequency range: DC to 200 Hz), amplified by a pre-amplifier (Gould, G-13-4615-52), and then filtered (DC to 100 Hz). Electrocardiograph signal was recorded by a second guided electrocardiograph recorder. The signal was amplified by a pre-amplifier(Gould G-20-4615-58) and then filtered (3-300 Hz). At the same time, the signal and the artery pressure were caught by a 12 bit analog-digital converter in an analyzing computer in a frequency of 256 points per second in every channel. The computer used was an IBM-PC compatible type comprising an Intel 80486 micro processor and a 4 MB memory. The Heart rate signals (digital blood pressure signal or electrocardiograph signal) were simultaneously and continuously on-line analyzed by the Fast Fourier Transform method, and the power of each special frequency interval was quantified by integration. High frequency (frequency between 0.5 to 2.4 Hz) in spectrum was considered as an index of parasympathetic nervous function, low frequency % [=100× low frequency/(high frequency+low frequency)] was considered as an index of sympathetic nervous function, and the means of heart rate period and variance were considered as references. The rats were divided into three groups, and each group had 4 to 6 animals. A group of animals were intravenously administered with yohimbine (1 mg/kg), which is a central nervous system α2 receptor antagonist being able to stimulate sympathetic nervous functions and inhibit parasympathetic nervous functions. Another group of animals was intravenously administered with guanabenz (100 μg/kg), which is a central nervous system α2 receptor agonist being able to inhibit sympathetic nervous functions and stimulate parasympathetic nervous functions. The animals administered with saline of the same volume was classified as a controlled group. Prior to applying the drugs, basal blood pressure, mean value of heart rate period and spectral analysis were measured for about 10 minutes, and after the drugs being intravenously administered, the effects of the drugs were measured for 30 minutes. […] Therefore, low frequency % is shown to be a valid index of the sympathetic nervous activity, and high frequency an index of the parasympathetic nervous activity, respectively. […]

autonomic nervous system [2] = test: Heart rate variability (ECG spectral analysis) in apoplectic patients complicated with hypertension before and after drug; assay type: in vivo, human; settings: labetalol 12.5 mg injected
Experimental: In this human experiment, the non-invasive apparatus system of the invention was used to monitor the autonomic nervous system functional change side effects caused by drugs. Four (two females and two males) apoplectic patients complicated with hypertension at the age of 77.3±8.8 (± means standard deviation) were chosen in the study. The patients were divided into two groups: (1) the control group and (2) the labetalol group (the experiment group). All patients, 5 minutes before administrating the drug, were classified as the control group. After being treated/injected with labetalol (12.5 mg) for 5 minutes, the patients became the labetalol group. Labetalol is an α and β combined epinephrine antagonist (a sympathetic hormone epinephrine blocker) for lowering blood pressure. Treatment and analysis of the electrocardiograph (ECG) were conducted similarly to those recited in Example 1, except that the ranges of the frequencies were determined based on those of humans. The power of each frequency range comprising variance, low frequency power (0.04-0.15 Hz) and high frequency power (0.15-0.4 Hz) was quantified by integration. Parameters of the ratios of low frequency/high frequency (LF/HF ratio) and low frequency rate (LF%) were also calculated at the same time. The values of variance, LF, HF and LF/HF were logarithmically transformed to correct the distribution bias. All data were presented as mean ±SD, and the differences between the experimental and control groups were examined by paired t-test, wherein a value of p<0.05 is considered as the data having a statistic meaning. […] Variance and HF responses were uncertain (P>0.05). In light of the results of the experiment, it has been proven that non-invasive apparatus system of the invention can be used in patients for monitoring autonomic nervous system functional change side effects caused by drugs.

[3] = guanabenz 100 μg/kg intravenously, FIG. 2
[4] = guanabenz 100 μg/kg intravenously, measured for 30 minutes after drug, FIG. 2
[5] = 5 minutes after vs before, P>0.05, FIG. 4
[6] = 5 minutes after vs before, p<0.05, FIG. 4
[7] = yohimbine 1 mg/kg intravenously, FIG. 3

For `N=C(N)N/N=C/c1c(Cl)cccc1Cl` [guanabenz], the “high frequency (index of parasympathetic nervous activity)” value (autonomic nervous system [1]; [3]) was “increased”, the “low frequency % (index of sympathetic nervous activity)” value (autonomic nervous system [1]; [3]) was “tremendously lowered” and the heart rate period (autonomic nervous system [1]; [4]) was “increased”. For the same compound, the heart rate variability (autonomic nervous system [1]; [4]) was “increased”.
`CC(CCc1ccccc1)NCC(O)c1ccc(O)c(C(N)=O)c1` (stereo not drawn) [labetalol] was tested, and the heart rate period (autonomic nervous system [2]; 5 minutes after vs 5 minutes before, four patients, p<0.05, FIG. 4) was “increased”, the HF response (autonomic nervous system [2]; [5]) was “uncertain” and the Variance response (autonomic nervous system [2]; [5]) was “uncertain”. The “LF % (index of heart sympathetic nervous activity)” value (autonomic nervous system [2]; [6]) was “decreased” and the “LF/HF (index of heart sympathetic nervous activity)” value (autonomic nervous system [2]; [6]) was “decreased”.
`COC(=O)[C@@H]1[C@H]2C[C@H]3c4[nH]c5ccccc5c4CCN3C[C@@H]2CC[C@@H]1O` [yohimbine] was tested, and the “high frequency (index of parasympathetic nervous activity)” value (autonomic nervous system [1]; [7]) was “lowered”, the heart rate period (autonomic nervous system [1]; [7]) was “lowered” and the “low frequency % (index of sympathetic nervous activity)” value (autonomic nervous system [1]; [7]) was “tremendously increased”.
